Measured values published in patent US20080262097A1, “Formulations” (priority 2005, published 2008).
≈ marks a conversion by molar mass, not a printed value. Blank lines part the entries; values can stand above or below the molecule they belong to.

Experiments:
S. aureus ATCC 29213 [1] = experiment: Supplemented disc diffusion assay (DDA + salt, lipid or blood); type: cell-based, Staphylococcus aureus; conditions: 200 μg per disc (thymoquinone 50 μg); for DDA + blood: agar supplemented with blood; for DDA + lipid: agar supplemented with lipid; for DDA + salt: agar supplemented with salt
Procedure: The staphylococci and enterococci were cultured and maintained on Mueller-Hinton Medium (agar and broth) at pH 7.2; they were incubated aerobically at 37° C. for 24 hours. A sterile paper disc was impregnated with a sample of the test compound and a minimum of 30 minutes allowed for the solvents to evaporate as far as possible. The disc was then placed on an agar plate onto which the test micro-organism had been inoculated. The plate was then incubated under the conditions described above, following which it was examined visually for signs of bacterial growth. If the test compound had antimicrobial activity, a circular zone of no growth would be obtained around the disc. The diameter of this zone of “inhibition” was measured using a ProtoCOL™ automated zone sizer (Synbiosis, Cambridge, UK). In general, a greater diameter and/or area of the zone of inhibition indicates a greater antimicrobial activity in the relevant test compound, although other factors such as test compound mobility through the agar gel may also influence the result. Either the DDA or the SDDA tests may be carried out using an agar gel supplemented with blood, lipid and/or salt to simulate some of the major components present in human skin and to assess whether these substances might reduce the antimicrobial activity observed for the test compounds. Performance under these conditions can provide a more reliable indication of activity on topical application. […] MIC, MBC and DDA assays, as described above, were carried out using the test compound benzoyl peroxide (BP) and a range of different benzoquinones and hydroquinones. Supplemented DDA assays, in the presence of salt, lipid and blood, were also conducted. […] The exceptions were the thymoquinone assays, in which only 50 μg of the benzoquinone was used.

S. aureus ATCC 29213 [2] = experiment: MIC assay; type: cell-based, Staphylococcus aureus; conditions: S. aureus ATCC 29213; Table 1 (Example 1)
Procedure: 1. Staphylococcus aureus—the principal staphylococcal test micro-organism used in these studies was Staphylococcus aureus ATCC 29213. This strain is the one recommended for QC/QA purposes in Minimum Inhibitory Concentration (MIC) assays by the US Clinical and Laboratory Standards Institute (formerly the NCCLS), an FDA-recognised body. […] The staphylococci and enterococci were cultured and maintained on Mueller-Hinton Medium (agar and broth) at pH 7.2; they were incubated aerobically at 37° C. for 24 hours. This is a standard international method for quantitatively assessing the antimicrobial activity of a compound in a liquid medium. The method used a 96-well microtitre plate, capable of holding about 200 μl of liquid per well. […] The culture media were as described above for the relevant test organisms. The wells were inoculated with a liquid suspension of freshly grown micro-organism and incubated under the conditions described above. After incubation, the microtitre plate was examined visually (with the aid of a light box) for cell pellets in and/or opaque wells, which would indicate microbial growth. The MIC value was recorded as the lowest concentration of test compound required to inhibit microbial growth, ie, the lowest concentration for which the liquid in the well remained clear. The assays were conducted in duplicate and included both negative (culture medium only) and positive (culture medium, diluting solvent and inoculum) controls.

S. aureus ATCC 29213 [3] = experiment: Synergy disc diffusion assay (SDDA); type: cell-based, Staphylococcus aureus; conditions: for SDDA area increase / SDDA increase: quinone + BP; for SDDA area increase: over larger single-compound zone; for SDDA increase: over larger single-compound zone diameter; for SDDA with BP: quinone combined with BP on one disc, 200 μg of each (thymoquinone 50 μg)
From the text: 1. Staphylococcus aureus—the principal staphylococcal test micro-organism used in these studies was Staphylococcus aureus ATCC 29213. This strain is the one recommended for QC/QA purposes in Minimum Inhibitory Concentration (MIC) assays by the US Clinical and Laboratory Standards Institute (formerly the NCCLS), an FDA-recognised body. S. aureus ATCC 29213 is susceptible to beta-lactam antibiotics such as methicillin and to many other antibiotics in clinical use worldwide today. The staphylococci and enterococci were cultured and maintained on Mueller-Hinton Medium (agar and broth) at pH 7.2; they were incubated aerobically at 37° C. for 24 hours. This is a variation on the DDA method, in which two compounds are tested together for their combined antimicrobial activity. It provides a qualitative indication as to whether the compounds are likely to interact synergistically. Two test compounds A and B were placed on a single paper disc and the above described DDA procedure repeated. An increase in diameter of the zone of inhibition, compared to the greater of the zone diameters for the two compounds individually, was taken to indicate potential antimicrobial synergy. […] The larger the increase in zone size, the greater the likelihood of a synergistic interaction between the two test compounds. Each of the quinones was then subjected, in combination with BP, to the SDDA assay described above. In each case, increases in zone diameter (mm) and area (%) were measured with respect to those observed for the compound showing the larger zone diameters during the previous disc diffusion assays on the individual compounds. […] The exceptions were the thymoquinone assays, in which only 50 μg of the benzoquinone was used.

S. aureus ATCC 29213 [4] = experiment: Disc diffusion assay (DDA); type: cell-based, Staphylococcus aureus; conditions: Table 1, zone diameter, 200 μg per disc (thymoquinone 50 μg)
From the text: 1. Staphylococcus aureus—the principal staphylococcal test micro-organism used in these studies was Staphylococcus aureus ATCC 29213. This strain is the one recommended for QC/QA purposes in Minimum Inhibitory Concentration (MIC) assays by the US Clinical and Laboratory Standards Institute (formerly the NCCLS), an FDA-recognised body. S. aureus ATCC 29213 is susceptible to beta-lactam antibiotics such as methicillin and to many other antibiotics in clinical use worldwide today. The staphylococci and enterococci were cultured and maintained on Mueller-Hinton Medium (agar and broth) at pH 7.2; they were incubated aerobically at 37° C. for 24 hours. A sterile paper disc was impregnated with a sample of the test compound and a minimum of 30 minutes allowed for the solvents to evaporate as far as possible. The disc was then placed on an agar plate onto which the test micro-organism had been inoculated. The plate was then incubated under the conditions described above, following which it was examined visually for signs of bacterial growth. If the test compound had antimicrobial activity, a circular zone of no growth would be obtained around the disc. The diameter of this zone of “inhibition” was measured using a ProtoCOL™ automated zone sizer (Synbiosis, Cambridge, UK). In general, a greater diameter and/or area of the zone of inhibition indicates a greater antimicrobial activity in the relevant test compound, although other factors such as test compound mobility through the agar gel may also influence the result. […] The exceptions were the thymoquinone assays, in which only 50 μg of the benzoquinone was used.

S. aureus ATCC 29213 [5] = experiment: MBC assay; type: cell-based, Staphylococcus aureus; conditions: S. aureus ATCC 29213; Table 1 (Example 1)
Procedure: 1. Staphylococcus aureus—the principal staphylococcal test micro-organism used in these studies was Staphylococcus aureus ATCC 29213. This strain is the one recommended for QC/QA purposes in Minimum Inhibitory Concentration (MIC) assays by the US Clinical and Laboratory Standards Institute (formerly the NCCLS), an FDA-recognised body. […] The staphylococci and enterococci were cultured and maintained on Mueller-Hinton Medium (agar and broth) at pH 7.2; they were incubated aerobically at 37° C. for 24 hours. This assay, normally carried out after an MIC assay, determines the minimum concentration of a compound that is lethal to the micro-organism being tested. […] These samples were then individually sub-cultured on non-selective agar medium, under the incubation conditions described above. Following incubation they were examined visually for bacterial growth.

P. acnes NCTC 737 [6] = experiment: Disc diffusion assay (DDA); type: cell-based, Propionibacterium acnes; conditions: Table 11 (Example 9), 200 μg per disc, mean of three replicates
Procedure: (§1) 2. Propionibacterium spp.—the principal propionibacterial strain used in these studies was Propionibacterium acnes NCTC 737.
(§2) The Propionibacterium spp organisms were cultured and maintained on Wilkins-Chalgren Anaerobe Medium (agar and broth) at pH 6.0; cultures were incubated anaerobically at 37° C. for 72 hours.
A sterile paper disc was impregnated with a sample of the test compound and a minimum of 30 minutes allowed for the solvents to evaporate as far as possible. The disc was then placed on an agar plate onto which the test micro-organism had been inoculated. The plate was then incubated under the conditions described above, following which it was examined visually for signs of bacterial growth. […] The diameter of this zone of “inhibition” was measured using a ProtoCOL™ automated zone sizer (Synbiosis, Cambridge, UK).
The area of the zone of inhibition was calculated from the measured zone diameter (D) using the formula π(D/2)^2.
(§3) For all (S)DDA assays, 200 μg of each compound was loaded onto each disc.

P. acnes NCTC 737 [7] = experiment: Synergy disc diffusion assay (SDDA); type: cell-based, Propionibacterium acnes; conditions: for SDDA area increase / SDDA increase: peroxide + TBHQ; for SDDA area increase: over larger single-compound zone; for SDDA increase: over larger single-compound zone diameter; for SDDA with TBHQ: peroxide combined with TBHQ on one disc, 200 μg of each
Procedure: as §1, §2
This is a variation on the DDA method, in which two compounds are tested together for their combined antimicrobial activity. It provides a qualitative indication as to whether the compounds are likely to interact synergistically.
Two test compounds A and B were placed on a single paper disc and the above described DDA procedure repeated.
Each of the quinones was then subjected, in combination with BP, to the SDDA assay described above.
as §3

MIC (S. aureus ATCC 29213 [2]): 7.8 mg/L (≈ 46.9 µM)
SMILES: Cc1cc(O)c(C(C)C)cc1O [thymohydroquinone, 2-iso-propyl-5-methyl-p-hydroquinone]
DDA + blood (S. aureus ATCC 29213 [1]): 10.27 mm
DDA + lipid (S. aureus ATCC 29213 [1]): 41.71 mm
DDA + salt (S. aureus ATCC 29213 [1]): 57.59 mm
SDDA area increase (S. aureus ATCC 29213 [3]): 70.26%
SDDA increase (S. aureus ATCC 29213 [3]): 17.56 mm
SDDA with BP (S. aureus ATCC 29213 [3]): 75.18 mm
DDA (S. aureus ATCC 29213 [4]): 57.62 mm
MBC (S. aureus ATCC 29213 [5]): 15.6 mg/L (≈ 93.9 µM)

SMILES: [Na+].[Na+].[O-][O-] [sodium peroxide]
DDA (P. acnes NCTC 737 [6]): 0.0 mm
SDDA area increase (P. acnes NCTC 737 [7]): 128.21%
SDDA increase (P. acnes NCTC 737 [7]): 7.66 mm
SDDA with TBHQ (P. acnes NCTC 737 [7]): 22.66 mm

SMILES: CC(C)(C)OO [t-butyl hydroperoxide]
DDA (P. acnes NCTC 737 [6]): 0.0 mm
SDDA area increase (P. acnes NCTC 737 [7]): 188.77%
SDDA increase (P. acnes NCTC 737 [7]): 10.49 mm
SDDA with TBHQ (P. acnes NCTC 737 [7]): 25.49 mm

SMILES: [Mg+2].[O-][O-] [magnesium peroxide]
DDA (P. acnes NCTC 737 [6]): 0.0 mm
SDDA area increase (P. acnes NCTC 737 [7]): 523.33%
SDDA increase (P. acnes NCTC 737 [7]): 22.45 mm
SDDA with TBHQ (P. acnes NCTC 737 [7]): 37.45 mm

MIC (S. aureus ATCC 29213 [2]): 15.6 mg/L (≈ 126 µM)
SMILES: Cc1cc(O)ccc1O [2-methyl-p-hydroquinone]
DDA + blood (S. aureus ATCC 29213 [1]): 18.74 mm
DDA + lipid (S. aureus ATCC 29213 [1]): 24.68 mm
DDA + salt (S. aureus ATCC 29213 [1]): 22.49 mm
SDDA area increase (S. aureus ATCC 29213 [3]): 62.56%
SDDA increase (S. aureus ATCC 29213 [3]): 7.07 mm
SDDA with BP (S. aureus ATCC 29213 [3]): 32.77 mm
DDA (S. aureus ATCC 29213 [4]): 25.70 mm
MBC (S. aureus ATCC 29213 [5]): 15.6 mg/L (≈ 126 µM)

SMILES: [Ca+2].[O-][O-] [calcium peroxide]
DDA (P. acnes NCTC 737 [6]): 0.0 mm
SDDA area increase (P. acnes NCTC 737 [7]): 544.48%
SDDA increase (P. acnes NCTC 737 [7]): 23.08 mm
SDDA with TBHQ (P. acnes NCTC 737 [7]): 38.08 mm
